Assay results: patent US10131652B2, “Pyrimidinyloxy benzene derivatives as herbicides” (E. I. DU PONT DE NEMOURS AND COMPANY, priority 2014, dated 2018)

Tests used:
Assay type in all cases: in vivo
[1] = tested on: barnyardgrass (Echinochloa crus-galli); experiment: Test C flooded paddy test plant response; conditions: Flood, 250 g ai/ha; scale of 0 to 100 where 0 is no effect and 100 is complete control; 13 to 15 days
In short: (§1)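 Water-applied treatment: compounds go directly into floodwater standing 3 cm over the soil of pots holding 2-leaf-stage plants. Depth is kept constant; plants stay in a greenhouse 13 to 15 days before visual comparison with controls on a 0–100 scale.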

rice (Oryza sativa) = experiment: Test C flooded paddy test plant response; conditions: Flood, 250 g ai/ha; scale of 0 to 100 where 0 is no effect and 100 is complete control; 13 to 15 days
In short: as §1

[2] = tested on: small-flower umbrella sedge (Cyperus difformis); experiment: Test C flooded paddy test plant response; conditions: Flood, 250 g ai/ha; scale of 0 to 100 where 0 is no effect and 100 is complete control; 13 to 15 days
In short: as §1

[3] = tested on: ducksalad (Heteranthera limosa); experiment: Test C flooded paddy test plant response; conditions: Flood, 250 g ai/ha; scale of 0 to 100 where 0 is no effect and 100 is complete control; 13 to 15 days
In short: as §1

[4] = tested on: barnyardgrass (Echinochloa crus-galli); experiment: Test B pre-/postemergence plant response
In short: (§2)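 Scoring used a 0–100 scale (100 = complete control) by visual comparison with untreated plants after approximately 10 days in the greenhouse. Compounds, in surfactant-containing non-phytotoxic solvent, were sprayed onto soil at planting or onto 2–10 cm seedlings.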

[5] = tested on: large (Lg) crabgrass (Digitaria sanguinalis); experiment: Test B pre-/postemergence plant response
In short: as §2

[6] = tested on: pigweed (Amaranthus retroflexus); experiment: Test B pre-/postemergence plant response
In short: as §2

[7] = tested on: velvetleaf (Abutilon theophrasti); experiment: Test B pre-/postemergence plant response
In short: as §2

[8] = tested on: giant foxtail (Setaria faberii); experiment: Test B pre-/postemergence plant response
In short: as §2

[9] = tested on: wheat (Triticum aestivum); experiment: Test B pre-/postemergence plant response
In short: as §2

corn (Zea mays) = experiment: Test B pre-/postemergence plant response
In short: as §2

[10] = tested on: galium (catchweed bedstraw, Galium aparine); experiment: Test B postemergence plant response
In short: (§3)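 Pots, loam soil + sand; postemergence treatment at 1–2 leaf stage, 2–10 cm; greenhouse ~10 d; visual injury score 0 (none) to 100 (complete control) relative to untreated controls.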

[11] = tested on: blackgrass (Alopecurus myosuroides); experiment: Test B postemergence plant response
In short: as §3

[12] = tested on: Italian ryegrass (Lolium multiflorum); experiment: Test B pre-/postemergence plant response
In short: as §2

[13] = tested on: ragweed (common ragweed, Ambrosia elatior); experiment: Test B pre-/postemergence plant response
In short: as §2

kochia (Kochia scoparia) = experiment: Test B pre-/postemergence plant response
In short: as §2

[14] = 125 g ai/ha, postemergence, 0 to 100 scale, 0 no effect, 100 complete control
[15] = Postemergence, 500 g ai/ha, 0 to 100 scale (0 no effect, 100 complete control)
[16] = Preemergence, 125 g ai/ha, 0 to 100 scale where 0 is no effect and 100 is complete control
[17] = Preemergence, 500 g ai/ha, 0 to 100 scale (0 no effect, 100 complete control)
[18] = Postemergence, 31 g ai/ha, 0 to 100 scale (0 no effect, 100 complete control)
[19] = 31 g ai/ha, Preemergence, 0 to 100 scale where 0 is no effect and 100 is complete control
[20] = Preemergence, 125 g ai/ha, 0 to 100 scale (0 no effect, 100 complete control)
[21] = 31 g ai/ha, Postemergence, 0 to 100 scale, 0 no effect, 100 complete control

Clc1cnc(Oc2ccccc2-c2cccc(Cl)n2)nc1 [Compound 16]
Barnyardgrass plant response rating [1]: 0
Rice plant response rating (rice (Oryza sativa)): 0
Sedge, Umbrella plant response rating [2]: 0
Ducksalad plant response rating [3]: 0
Plant response rating, Barnyardgrass [4, 14]: 0
Plant response rating, Barnyardgrass [4, 15]: 0
Plant response rating, Barnyardgrass [4, 16]: 0
Plant response rating, Barnyardgrass [4, 17]: 0
Plant response rating, Crabgrass, Large [5, 14]: 0
Plant response rating, Crabgrass, Large [5, 15]: 0
Plant response rating, Crabgrass, Large [5, 16]: 0
Plant response rating, Crabgrass, Large [5, 17]: 10
Plant response rating, Pigweed [6, 14]: 0
Plant response rating, Pigweed [6, 15]: 30
Plant response rating, Pigweed [6, 16]: 0
Plant response rating, Pigweed [6, 17]: 20
Plant response rating, Velvetleaf [7, 14]: 0
Plant response rating, Velvetleaf [7, 15]: 20
Plant response rating, Velvetleaf [7, 16]: 0
Plant response rating, Velvetleaf [7, 17]: 20
Plant response rating, Foxtail, Giant [8, 14]: 0
Plant response rating, Foxtail, Giant [8, 15]: 0
Plant response rating, Foxtail, Giant [8, 16]: 0
Plant response rating, Foxtail, Giant [8, 17]: 10
Plant response rating, Wheat [9, 14]: 0
Plant response rating, Wheat [9, 15]: 0
Plant response rating, Wheat [9, 16]: 0
Plant response rating, Wheat [9, 17]: 0
Plant response rating, Corn (corn (Zea mays); [14]): 0
Plant response rating, Corn (corn (Zea mays); [15]): 0
Plant response rating, Corn (corn (Zea mays); [16]): 0
Plant response rating, Corn (corn (Zea mays); [17]): 0

Clc1cccc(-c2ccccc2Oc2ncc(Br)cn2)n1 [Compound 17]
Barnyardgrass plant response rating [1]: 0
Rice plant response rating (rice (Oryza sativa)): 0
Sedge, Umbrella plant response rating [2]: 0
Ducksalad plant response rating [3]: 0
Plant response rating, Barnyardgrass [4, 14]: 0
Plant response rating, Barnyardgrass [4, 15]: 0
Plant response rating, Barnyardgrass [4, 16]: 0
Plant response rating, Barnyardgrass [4, 17]: 0
Plant response rating, Crabgrass, Large [5, 14]: 0
Plant response rating, Crabgrass, Large [5, 15]: 0
Plant response rating, Crabgrass, Large [5, 16]: 0
Plant response rating, Crabgrass, Large [5, 17]: 10
Plant response rating, Pigweed [6, 14]: 0
Plant response rating, Pigweed [6, 15]: 10
Plant response rating, Pigweed [6, 16]: 0
Plant response rating, Pigweed [6, 17]: 0
Plant response rating, Velvetleaf [7, 14]: 0
Plant response rating, Velvetleaf [7, 15]: 20
Plant response rating, Velvetleaf [7, 16]: 0
Plant response rating, Velvetleaf [7, 17]: 10
Plant response rating, Foxtail, Giant [8, 14]: 0
Plant response rating, Foxtail, Giant [8, 15]: 0
Plant response rating, Foxtail, Giant [8, 16]: 0
Plant response rating, Foxtail, Giant [8, 17]: 0
Plant response rating, Wheat [9, 14]: 0
Plant response rating, Wheat [9, 15]: 0
Plant response rating, Wheat [9, 16]: 0
Plant response rating, Wheat [9, 17]: 0
Plant response rating, Corn (corn (Zea mays); [14]): 0
Plant response rating, Corn (corn (Zea mays); [15]): 0
Plant response rating, Corn (corn (Zea mays); [16]): 0
Plant response rating, Corn (corn (Zea mays); [17]): 0

FC(F)c1ccc(-c2ccccc2Oc2ncc(Cl)cn2)o1 [Compound 239]
Plant response rating, Galium [10, 14]: 0
Plant response rating, Galium [10, 18]: 0
Plant response rating, Blackgrass [11, 14]: 0
Plant response rating, Blackgrass [11, 18]: 0
Barnyardgrass plant response rating [1]: 0
Rice plant response rating (rice (Oryza sativa)): 0
Sedge, Umbrella plant response rating [2]: 0
Ducksalad plant response rating [3]: 0
Plant response rating, Barnyardgrass [4, 19]: 0
Plant response rating, Barnyardgrass [4, 14]: 0
Plant response rating, Barnyardgrass [4, 18]: 0
Barnyardgrass plant response rating [4, 20]: 0
Plant response rating, Ryegrass, Italian [12, 19]: 0
Plant response rating, Ryegrass, Italian [12, 14]: 0
Plant response rating, Ryegrass, Italian [12, 18]: 0
Ryegrass, Italian plant response rating [12, 20]: 0
Plant response rating, Pigweed [6, 19]: 0
Plant response rating, Pigweed [6, 14]: 20
Plant response rating, Pigweed [6, 18]: 0
Pigweed plant response rating [6, 20]: 0
Plant response rating, Foxtail, Giant [8, 19]: 0
Plant response rating, Foxtail, Giant [8, 14]: 0
Plant response rating, Foxtail, Giant [8, 18]: 0
Foxtail, Giant plant response rating [8, 20]: 0
Plant response rating, Ragweed [13, 19]: 0
Plant response rating, Ragweed [13, 14]: 0
Plant response rating, Ragweed [13, 18]: 0
Ragweed plant response rating [13, 20]: 0
Plant response rating, Wheat [9, 14]: 0
Plant response rating, Wheat [9, 18]: 0
Plant response rating, Corn (corn (Zea mays); [14]): 20
Plant response rating, Corn (corn (Zea mays); [18]): 0
Plant response rating, Kochia (kochia (Kochia scoparia); [19]): 0
Plant response rating, Kochia (kochia (Kochia scoparia); [14]): 0
Plant response rating, Kochia (kochia (Kochia scoparia); [18]): 0
Kochia plant response rating (kochia (Kochia scoparia); [20]): 0

COc1cccc(Oc2ncc(Cl)cn2)c1-c1cc(C(F)F)on1 [Compound 109]
Plant response rating, Galium [10, 21]: 50
Plant response rating, Galium [10, 14]: 100
Plant response rating, Blackgrass [11, 21]: 50
Plant response rating, Blackgrass [11, 14]: 90
Barnyardgrass plant response rating [1]: 30
Rice plant response rating (rice (Oryza sativa)): 35
Sedge, Umbrella plant response rating [2]: 80
Ducksalad plant response rating [3]: 85
Plant response rating, Barnyardgrass [4, 21]: 60
Plant response rating, Barnyardgrass [4, 19]: 40
Plant response rating, Barnyardgrass [4, 14]: 90
Plant response rating, Barnyardgrass [4, 16]: 100
Plant response rating, Ryegrass, Italian [12, 21]: 10
Plant response rating, Ryegrass, Italian [12, 19]: 0
Plant response rating, Ryegrass, Italian [12, 14]: 50
Plant response rating, Ryegrass, Italian [12, 16]: 10
Plant response rating, Pigweed [6, 21]: 80
Plant response rating, Pigweed [6, 19]: 90
Plant response rating, Pigweed [6, 14]: 100
Plant response rating, Pigweed [6, 16]: 100
Plant response rating, Foxtail, Giant [8, 21]: 60
Plant response rating, Foxtail, Giant [8, 19]: 80
Plant response rating, Foxtail, Giant [8, 14]: 90
Plant response rating, Foxtail, Giant [8, 16]: 100
Plant response rating, Ragweed [13, 21]: 60
Plant response rating, Ragweed [13, 19]: 20
Plant response rating, Ragweed [13, 14]: 90
Plant response rating, Ragweed [13, 16]: 70
Plant response rating, Wheat [9, 21]: 0
Plant response rating, Wheat [9, 14]: 10
Plant response rating, Corn (corn (Zea mays); [21]): 10
Plant response rating, Corn (corn (Zea mays); [14]): 60
Plant response rating, Kochia (kochia (Kochia scoparia); [21]): 0
Plant response rating, Kochia (kochia (Kochia scoparia); [19]): 0
Plant response rating, Kochia (kochia (Kochia scoparia); [14]): 30
Plant response rating, Kochia (kochia (Kochia scoparia); [16]): 30

FC(F)(F)C(F)(F)c1cc(-c2ccccc2Oc2ncc(Cl)cn2)no1 [Compound 142]
Plant response rating, Galium [10, 14]: 10
Plant response rating, Blackgrass [11, 21]: 0
Plant response rating, Blackgrass [11, 14]: 0
Barnyardgrass plant response rating [1]: 0
Rice plant response rating (rice (Oryza sativa)): 0
Sedge, Umbrella plant response rating [2]: 0
Ducksalad plant response rating [3]: 0
Plant response rating, Barnyardgrass [4, 21]: 0
Plant response rating, Barnyardgrass [4, 19]: 0
Plant response rating, Barnyardgrass [4, 14]: 0
Barnyardgrass plant response rating [4, 20]: 0
Plant response rating, Ryegrass, Italian [12, 19]: 0
Plant response rating, Ryegrass, Italian [12, 14]: 0
Ryegrass, Italian plant response rating [12, 20]: 0
Plant response rating, Pigweed [6, 19]: 0
Plant response rating, Pigweed [6, 14]: 20
Pigweed plant response rating [6, 20]: 0
Plant response rating, Foxtail, Giant [8, 21]: 0
Plant response rating, Foxtail, Giant [8, 19]: 0
Plant response rating, Foxtail, Giant [8, 14]: 0
Foxtail, Giant plant response rating [8, 20]: 20
Plant response rating, Ragweed [13, 19]: 0
Plant response rating, Ragweed [13, 14]: 0
Ragweed plant response rating [13, 20]: 0
Plant response rating, Wheat [9, 14]: 0
Plant response rating, Corn (corn (Zea mays); [21]): 0
Plant response rating, Corn (corn (Zea mays); [14]): 20
Plant response rating, Kochia (kochia (Kochia scoparia); [19]): 0
Plant response rating, Kochia (kochia (Kochia scoparia); [14]): 20
Kochia plant response rating (kochia (Kochia scoparia); [20]): 0
